The results in this text go back to US12559454B2, “Benzenesulfonamide derivatives and uses thereof” (2692372 Ontario, Inc., priority 2019, dated 2026).

Data set [1] is described as follows: Parallel artificial membrane permeability assay (PAMPA), Example D4. As to conditions: for recovery at 16 h, 10 μM: pH 7.4. Background: In PAMPA a lipid-coated filter parts donor from acceptor wells.
Procedure: (§2) 1) The stock solutions of positive controls were prepared in DMSO at the concentration of 10 mM. Testosterone and methotrexate were used as control compounds in this assay. 2) Prepare a stock solution of compounds in DMSO at the concentration of 10 mM, and further dilute with PBS (pH 7.4). The final concentration of the test compound is 10 μM.
(§3) Assay Procedures. […] 2)Carefully pipette 5 μL of the lecithin/dodecane mixture into each acceptor plate well (top compartment), avoiding pipette tip contact with the membrane. 3) Immediately after the application of the artificial membrane (within 10 minutes), add 300 μL of PBS (pH 7.4) solution to each well of the acceptor plate. Add 300 μL of drug-containing solutions to each well of the donor plate (bottom compartment) in triplicate. 4) Slowly and carefully place the acceptor plate into the donor plate, making sure the underside of the membrane is in contact with the drug-containing solutions in all wells. 5) Replace the plate lid and incubate at 25° C., 60 rpm for 16 hours. 6) After incubation, aliquots of 50 μL from each well of acceptor and donor plate are transferred into a 96-well plate. Add 200 μL of methanol (containing IS: 100 nM Alprazolam, 200 nM Labetalol and 2 μM Ketoprofen) into each well. 7) Cover with plate lid. Vortex at 750 rpm for 100 seconds. Samples were centrifuged at 3,220 g for 20 minutes. Determine the compound concentrations by LC/MS/MS.
For data set [2] the following is noted: PAMPA, 16 h, 10 μM, pH 7.4.
Procedure: as §2, §3
A short description of data set [3]: Intrinsic clearance in mouse hepatocyte. Format: in vitro ADME. As to conditions: hepatocytes. As to the method: A stock of 100 μM test compound was prepared by diluting the 10 mM test compound in DMSO with a solution of 50% acetonitrile and 50% water. In a 96-well non-coated plate, 198 μL of hepatocytes was pipetted, and the plate was placed in the incubator on an orbital shaker to allow the hepatocytes to warm for 10 minutes. To this solution was added 2 μL of the 100 μM test compound to start the reaction, and the plate was placed on an orbital shaker. […] The reaction solution was then vortexed for 10 minutes and centrifuged at 4,000 rpm for 30 minutes at 4° C. 400 μL of the supernatant was transferred to one new 96-well plate. Centrifuged at 4,000 rpm for 30 minutes at 4° C. Transfer 100 μL of the supernatant to a new 96-well plate ensuring the pellet was not disturbed. Add 100 μL of ultrapure water to all samples for analysis by LC-MS/MS. Bioanalytical method: Column—Phenomenex Synergi 4μ Hydro-PR 80A (2.0×30 mm). Mobile phase—0.1% formic acid in water (solvent A) and 0.1% formic acid in acetonitrile (solvent B). Column temperature—room temperature. Injection volume—10 μL. MS analysis—API 4000 instrument from AB Inc (Canada) with an ESI interface.

For a further data set, the system named is tubulin. As to the kind of experiment: Tubulin polymerization assay. Format: biochemical. As to conditions: for % Inhibition: Vmax normalized to tubulin only control; for % D.O.P.: degree of polymerization relative to tubulin control. A digest of the protocol: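 Purified tubulin (3 mg/mL in the polymerization mix) in 80 mM PIPES pH 6.9, 2 mM MgCl2, 0.5 mM EGTA, 1 mM GTP, 10.2% glycerol was added to inhibitor at 37 °C. A340 read every 15 s for 30 min; maximal baseline-subtracted change relative to tubulin-only control gave % degree of polymerization.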

The target of data set [4] is T1, BTK (Homo sapiens, UniProt Q06187). As to the kind of experiment: In vitro BTK inhibition (no preincubation). The data set is classed as biochemical. As to conditions: Table 17.
In the next data set the target is T2, BMX (Homo sapiens, UniProt P51813).
T2 sequence (P51813 1-675): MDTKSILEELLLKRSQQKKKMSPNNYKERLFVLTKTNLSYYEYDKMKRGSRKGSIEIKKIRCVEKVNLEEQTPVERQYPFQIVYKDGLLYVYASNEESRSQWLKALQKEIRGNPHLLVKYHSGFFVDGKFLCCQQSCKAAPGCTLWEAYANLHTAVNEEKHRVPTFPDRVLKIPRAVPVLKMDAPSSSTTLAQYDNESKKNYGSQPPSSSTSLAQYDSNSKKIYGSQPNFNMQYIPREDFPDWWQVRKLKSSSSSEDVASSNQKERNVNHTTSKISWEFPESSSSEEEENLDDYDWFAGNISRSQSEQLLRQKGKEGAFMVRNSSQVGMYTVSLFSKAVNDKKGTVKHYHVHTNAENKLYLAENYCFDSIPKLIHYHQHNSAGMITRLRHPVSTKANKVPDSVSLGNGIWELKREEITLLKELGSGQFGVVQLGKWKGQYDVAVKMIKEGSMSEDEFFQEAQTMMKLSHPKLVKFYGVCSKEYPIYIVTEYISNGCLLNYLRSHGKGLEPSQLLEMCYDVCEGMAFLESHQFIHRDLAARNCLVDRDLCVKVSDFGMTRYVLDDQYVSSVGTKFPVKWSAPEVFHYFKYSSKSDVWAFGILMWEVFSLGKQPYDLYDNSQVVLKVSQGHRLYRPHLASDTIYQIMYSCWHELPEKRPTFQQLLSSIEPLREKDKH
Nature of the data set: In vitro kinase inhibition, BMX. The data set is classed as biochemical.

The subject of a further data set is K562 cells. Nature of the data set: CellTiter-Blue cell viability, K562. The data set is classed as cell-based. As to conditions: Homo sapiens, 72 hrs exposure. In outline:
(§1)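 Cells plated at 1×10^4 per well, compound (0.097656-50 μM) added after 24 hrs and exposed 72 hrs at 37° C, 5% CO2. Viability by CellTiter-Blue, 1-4 h incubation, fluorescence at 560/590 nm.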

A short description of data set [5]: Plasma concentration in Balb/C nude mice.
Procedure: IP administration at 40 mg/kg
Bioanalytical assay: Mobile phase: Solvent A=Water (0.1% Formic acid, 5% Acetonitrile), Solvent B=Acetonitrile (0.1% Formic acid, 5% Water), Column: Agilent ZORBAX XDB-Phenyl 5 μm (50×2.10 mm), MS: AB API 5500 LC/MS/MS instrument, HPLC: Shimadzu (DGU-20A5R)
Mouse species: Balb/C nude mice
For another data set, the system named is MOLM-13 cells. Nature of the data set: CellTiter-Blue cell viability, MOLM-13. The data set is classed as cell-based. As to conditions: Homo sapiens, 72 hrs exposure. A digest of the protocol: as §1
Data set [6] can be described thus: Reactivity profiling with glutathione, HPLC method. Format: physicochemical. As to conditions: IMDM buffer with 10% FBS and 5 mM GSH, 25 μM compound. As to the method:
The rate of compound degradation is determined by the integrated area of the analytical peak corresponding to the intact compound (t=0) after each sampling time. The elution time was 13 minutes with the flow rate of 1.2 ml/min. The mobile phase was consisted of phase A and B. Mobile phase A was analytical grade acetonitrile (+0.1% formic acid) and mobile phase B was Milli-Q water (+0.1% formic acid). Each compound was tested in duplicate. The data was processed and analyzed using GraphPad.

The next data set has as its system MV4-11 cells. Nature of the data set: CellTiter-Blue cell viability, MV-4-11. Format: cell-based. As to conditions: Homo sapiens, 72 hrs exposure. A digest of the protocol:
as §1
A general note: Resazurin is reduced to fluorescent resorufin, in cell work by metabolically active cells.

Data set [7] in a line: Reactivity profiling with glutathione, LC/MS/MS. Format: physicochemical. As to conditions: PBS buffer with 5 mM GSH, PBS pH 7.4, 25° C., 5 μM compound. How it is done: The experiment was started by placing 1 μL of 1 mM stocking solution of the test compound in DMSO in 199 μL of PBS buffer at pH 7.4 with 5 mM GSH to reach a final concentration of 5 μM. The final DMSO concentration was 0.5%. The solution was then incubated at 25° C. at 600 rpm, and was quenched with 600 μL solution of acetonitrile at 0, 30, 60 and 120 minutes. The quenched solution was vortexed for 10 minutes and centrifuged for 40 minutes at 3,220 g. An aliquot of 100 μL of the supernatant was diluted by 100 μL ultra-pure water, and the mixture was used for LC/MS/MS analysis. The data was processed and analyzed using Microsoft Excel.

Data set [8] deals with T1, BTK. As to the kind of experiment: BTK irreversible inhibition, enzyme kinetic analysis. Format: biochemical. As to the method: One of ordinary skill in the art will recognize that this is consistent with the irreversible inhibition of BTK by compound I-A1.
One of ordinary skill in the art will recognize that this is consistent with the irreversible inhibition of BTK by compound I-A6.
One of ordinary skill in the art will recognize that this is consistent with the irreversible inhibition of BTK by compound 3A-2.
The shift of IC50 to a lower value after pre-incubation of the enzyme indicates to one of ordinary skill in the art that a significant portion of the enzyme was inhibited irreversibly during the incubation period.

In data set [9] the test system is normal primary human fibroblast (NHF) cell lines. As to the kind of experiment: Toxicity study, CellTiter-Blue viability in normal primary human fibroblasts (NHF). Format: cell-based. As to conditions: NHF cells, 72 hrs exposure. As to the method: Anti-cancer efficacy of exemplary compounds of this application was assessed in vitro in different cancer cell lines. Cell viability was examined following treatment at various concentration of inhibitor (0.097656-50 μM) using a cell Titer-Blue cell viability assay. 1×10^4 cells (NHF cells)/well were plated in 96-well assay plates in culture medium. All cells were grown in DMEM, IMDM and RPMI-1640 supplemented with 10% FBS. After 24 hrs, test compounds and vehicle controls were added to appropriate wells so the final volume was 100p in each well. The cells were cultured for the desired test exposure period (72 hrs) at 37° C. and 5% CO2. The assay plates were removed from 37° C. incubator and 20 μl/well of CellTiter-Blue® Reagent was added. The plates were incubated using standard cell culture conditions for 1-4 hours and the plates were shaken for 10 seconds and record fluorescence at 560/590 nm.
Representative data for exemplary compounds against select normal primary human fibroblast (NHF) cell lines are presented in the following Table 7.

Data set [10] in a line: Parallel artificial membrane permeability assay (PAMPA), Example C4. As to conditions: PBS pH 7.4, 10 μM, 16 hours. The data set is classed as in vitro ADME. How it is done:
Assay Procedures. […] 7) Cover with plate lid. Vortex at 750 rpm for 100 seconds. […] Determine the compound concentrations by LC/MS/MS.

Data set [11] concerns the target T1, BTK. As to the kind of experiment: Selected kinase inhibition, BTK (Table 6). Format: biochemical.

Several values for one entry are separate records, joined by “and”; a condition that tells them apart may be missing. Identical values can stand only once. Like-named read-outs stand apart in the source and are kept apart here.

T1 sequence (Q06187 whole entry, species assumed): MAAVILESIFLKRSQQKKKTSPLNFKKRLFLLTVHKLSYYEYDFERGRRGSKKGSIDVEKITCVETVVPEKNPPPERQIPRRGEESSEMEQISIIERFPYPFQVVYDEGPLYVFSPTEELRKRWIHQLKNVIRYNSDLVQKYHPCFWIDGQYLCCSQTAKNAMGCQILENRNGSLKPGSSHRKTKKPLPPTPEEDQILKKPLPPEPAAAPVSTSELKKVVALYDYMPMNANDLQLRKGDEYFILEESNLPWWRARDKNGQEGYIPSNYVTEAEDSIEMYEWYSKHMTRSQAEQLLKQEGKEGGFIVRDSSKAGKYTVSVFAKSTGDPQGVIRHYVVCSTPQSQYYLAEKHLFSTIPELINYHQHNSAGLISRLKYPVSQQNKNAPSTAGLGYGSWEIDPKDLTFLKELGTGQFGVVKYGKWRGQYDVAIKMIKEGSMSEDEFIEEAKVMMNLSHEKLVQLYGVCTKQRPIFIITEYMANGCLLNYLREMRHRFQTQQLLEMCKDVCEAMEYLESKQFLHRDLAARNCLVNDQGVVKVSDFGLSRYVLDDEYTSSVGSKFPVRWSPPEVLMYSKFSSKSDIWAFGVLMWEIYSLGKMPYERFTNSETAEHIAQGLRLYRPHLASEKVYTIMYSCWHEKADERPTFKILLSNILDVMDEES

With `COc1ccc(NS(=O)(=O)c2c(F)c(F)c(F)c(F)c2F)cc1F` [Batabulin, batabulin, reference compound], in data set [1], the recovery at 16 h, 10 μM stood at 67.4%. Moreover, the “−Log Pe” value in [2] turned out to be 5.00. Further, in [3], the half-life (as a rule, the time in which the quantity being followed falls by half) at 1 μM is no more than 0.167 h. Besides, in the data set on tubulin, the “% Inhibition” value is on record as “C (>20%)” and the “% D.O.P.” value is “B (< 85%)”.
As for `COc1c(F)c(F)c(F)c(F)c1S(=O)(=O)N1CCC[C@@H](n2nc(-c3ccc(Oc4ccccc4)cc3)c3c(N)ncnc32)C1` [Compound 3A-1, (R)-3-(4-phenoxyphenyl)-1-(1-((2,3,4,5-tetrafluoro-6-methoxyphenyl)sulfonyl)piperidin-3-yl)-1H-pyrazolo[3,4-d]pyrimidin-4-amine], the IC50 (usually the concentration that inhibits the measured activity by half) against BTK [4] is 0.1 to 1 µM; against BMX it was 0.01 to 0.1 µM.
As for `COc1ccc(NS(=O)(=O)c2c(F)c(F)c(F)c(F)c2OC2CC2)cc1F` [Compound I-75, 2-cyclopropoxy-3,4,5,6-tetrafluoro-N-(3-fluoro-4-methoxyphenyl)benzenesulfonamide], in [1] (PBS pH 7.4, 10 μM, 16 hours), the “−Log Pe” value is 5.02. Besides, in data set [1], the recovery at 16 h, 10 μM is 94.9%. The IC50 was 0.1 to 1 µM with K562 cells, 0.1 to 1 µM with MOLM-13 cells and no more than 0.1 µM in the data set on MV4-11 cells. Besides, the Cmax (as a rule, the peak of the concentration-time curve) in data set [5] (Balb/C nude, mouse, ip, 40 mg/kg) is < 20 ng/mL and < 50 µM. The “K (h^−1)” value in data set [5] (IP 40 mg/kg, Balb/C nude mice) is “A (≤5 h^−1)”. In [3], the half-life at 1 μM is 1.67 to 16.7 h. Also, in the data set on tubulin, the “% Inhibition” value is listed as “B (10-20%)”. Moreover, in the data set on tubulin, the “% D.O.P.” value is given as “B (< 85%)”. Besides, in data set [6], the half-life at 25 μM is 1.67 to 16.7 h.
For `Nc1ncnc2c1c(-c1ccc(Oc3ccccc3)cc1)nn2[C@@H]1CCCN(S(=O)(=O)c2c(F)c(F)cc(F)c2F)C1` [I-A5, (R)-3-(4-phenoxyphenyl)-1-(1-((2,3,5,6-tetrafluorophenyl)sulfonyl)piperidin-3-yl)-1H-pyrazolo[3,4-d]pyrimidin-4-amine], the half-life at 5 μM in [7] lay within 167 to 500 h. In addition, the “inhibition profile by enzyme kinetic analysis” value against BTK [8] (0.1 nM BTK, 500 μM ATP) is given as “linear enzyme reaction rates”. The IC50 is 0.334 µM on BTK [8] (fitting of linear reaction rates to a reversible binding model, read-out: IC50 (reversible binding model)); greater than 25 µM in data set [9]; 0.1 to 1 µM against BTK [4]; 0.1 to 1 µM at BTK [11]. Further, in [10], the “−Log Pe” value is “B (>5 to ≤6)”.
